pIC50: −log10 of the molar value.
Experiments:
Format in all cases: biochemical
[1] = target: T1, human liver cathepsin L (Homo sapiens, UniProt P07711); assay: Cathepsin L assay, IC50 determination; settings: Table 1; read-out: IC50 Cat L
T1 construct: 8.7 ng/mL human liver cathepsin L (Calbiochem 219402); purchased Calbiochem 219402; host or cells: human liver
Protocol: Assay buffer consisted of 20 mM sodium acetate, 1 mM ethylenediaminetetraacetic acid (EDTA) and 5 mM cysteine, pH 5.5. Cathepsin L was incubated in assay buffer for 30 minutes prior to dispensing into wells to allow for efficient reduction of the active site cysteine required for full enzymatic activity.
Upon activation, cathepsin L (300 pM, 8.7 ng/mL) was incubated with 1 microM Z-Phe-Arg-AMC substrate (Sigma C9521) and test compound in […] of assay buffer for 1 hour at room temperature.
All reactions were performed in 20 mM sodium acetate buffer containing 5 mM cysteine and 1 mM EDTA, pH 5.5. Reaction progress was monitored using the Envision microplate reader. IC50 values were measured in triplicate.

[2] = target: T2, Human liver cathepsin B (Homo sapiens, UniProt P07858); assay: Cathepsin B assay, IC50 determination; settings: Table 1; read-out: IC50 Cat B
T2 construct: Human liver cathepsin B (Calbiochem 219362, 65 ng/mL); purchased Calbiochem 219362; host or cells: human liver
Protocol: (§1) Human spleen cathepsin S (Calbiochem 219344, 40 ng/mL) was assayed using 15 microM Z-Phe-Arg-AMC substrate. Human liver cathepsin B (Calbiochem 219362, 65 ng/mL) was assayed using 15 microM Z-Arg-Arg-AMC substrate (Bachem I-1135). All reactions were performed in 20 mM sodium acetate buffer containing 1 mM EDTA and 5 mM cysteine, pH 5.5.
(§2) Compounds were serially diluted in DMSO and transferred into a 96-well Corning 3686 assay microplate to give a 16-point two-fold serial dilution dose response ranging from 25 microM to 760 pM. Human liver cathepsin L (Calbiochem 219402) was activated by incubating with assay buffer for 30 min. Upon activation, cathepsin L (300 pM, 8.7 ng/mL) was incubated with 1 microM Z-Phe-Arg-AMC substrate (Sigma C9521) and test compound in […] of assay buffer for 1 hour at room temperature. Fluorescence of AMC released by enzyme-catalyzed hydrolysis of Z-Phe-Arg-AMC was read on a PerkinElmer Envision microplate reader (excitation 355 nm, emission 460 nm). Data were scaled using internal controls and fitted to a four-parameter logistic model (IDBS XLfit equation 205) to obtain IC50 values in triplicate.
(§3) Compound No. 1 was assayed for inhibition against papain and cathepsins B, G, K, S, and V. Papain from Carica papaya (Calbiochem 5125, 11 ng/mL), human cathepsin K (Calbiochem 342001, 35 ng/mL), human spleen cathepsin S (Calbiochem 219344, 40 ng/mL), and human cathepsin V (Calbiochem 219467, 39 ng/ml) were assayed using Z-Phe-Arg-AMC substrate at 20 μM, 20 μM, 15 μM, and 1 μM, respectively. Human liver cathepsin B (Calbiochem 219362, 65 ng/mL) was assayed using 15 μM Z-Arg-Arg-AMC substrate (Bachem I-1135). Human neutrophil cathepsin G (Calbiochem 219373, 4.2 μg/mL) was assayed using 15 μM Suc-Ala-Ala-Pro-Phe-AMC substrate (Sigma S9761). All reactions were performed in 20 mM sodium acetate buffer containing 5 mM cysteine and 1 mM EDTA, pH 5.5. Reaction progress was monitored using the Envision microplate reader. IC50 values were measured in triplicate.

[3] = target: T3, Human spleen cathepsin S (Homo sapiens, UniProt P25774); assay: Cathepsin S assay, IC50 determination; settings: Table 1; read-out: IC50 Cat S
T3 construct: Human spleen cathepsin S (Calbiochem 219344, 40 ng/mL); purchased Calbiochem 219344; host or cells: human spleen
T3 sequence (P25774 115-331): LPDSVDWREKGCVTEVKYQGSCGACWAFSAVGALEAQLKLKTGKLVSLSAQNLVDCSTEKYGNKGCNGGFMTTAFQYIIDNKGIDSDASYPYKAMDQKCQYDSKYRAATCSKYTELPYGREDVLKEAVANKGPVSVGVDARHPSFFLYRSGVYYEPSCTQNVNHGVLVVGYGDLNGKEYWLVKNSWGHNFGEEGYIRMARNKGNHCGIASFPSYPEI
Protocol: as §1, §2, §3

T1 sequence (P07711 114-288 limits assumed): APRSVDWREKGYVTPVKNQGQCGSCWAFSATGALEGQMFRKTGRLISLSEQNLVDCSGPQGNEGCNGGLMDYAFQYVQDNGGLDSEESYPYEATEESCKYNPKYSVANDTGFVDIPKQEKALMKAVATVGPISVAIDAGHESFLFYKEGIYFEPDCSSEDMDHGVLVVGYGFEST
T1 sequence (P07711 292-333 limits assumed): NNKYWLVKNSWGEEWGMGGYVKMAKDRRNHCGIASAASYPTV

SMILES	pIC50 [1]	pIC50 [2]	pIC50 [3]
CC(C)(C)OC(=O)N[C@@H](COCc1ccccc1)C(=O)NNC(=O)SCC(=O)N1CCCc2ccccc21 [Compound No. 47]	5.82	4.88	5.58
CC(C)(C)OC(=O)N[C@H](COCc1ccccc1)C(=O)NNC(=O)SCC(=O)N1CCCc2ccccc21 [Compound No. 49]	4.75	< 4.60	5.23
CC(C)(C)OC(=O)N[C@@H](CCCCNC(=O)OCc1ccccc1)C(=O)NNC(=O)SCC(=O)N1CCCc2ccccc21 [Compound No. 57]	< 4.60	5.36	5.29
CC(C)(C)OC(=O)N[C@@H](CCC(=O)NC1c2ccccc2Oc2ccccc21)C(=O)NNC(=O)SCC(=O)N1CCCc2ccccc21 [Compound No. 60]	< 4.60	< 4.60	< 4.60
CCc1ccccc1NC(=O)CSC(=O)NNC(=O)[C@H](CCCNC(=N)N[N+](=O)[O-])NC(=O)OC(C)(C)C [Compound No. 62]	5.44	< 4.60	5.67
CCc1ccccc1NC(=O)CSC(=O)NNC(=O)CNC(=O)OC(C)(C)C [Compound No. 64]	< 4.60	≤ 4.60	< 4.60
CCc1ccccc1NC(=O)CSC(=O)NNC(=O)[C@H](Cc1ncc[nH]1)NC(=O)OC(C)(C)C [Compound No. 65]	< 4.60	4.86	< 4.60
CC(C)(C)OC(=O)N[C@@H](Cc1ncc[nH]1)C(=O)NNC(=O)SCC(=O)N1CCCc2ccccc21 [Compound No. 66]	< 4.60	4.94	< 4.60
CCc1ccccc1NC(=O)CSC(=O)NNC(=O)[C@H](C)CO [Compound No. 67]	< 4.60	< 4.60	< 4.60
C[C@H](CO)C(=O)NNC(=O)SCC(=O)N1CCCc2ccccc21 [Compound No. 68]	< 4.60	< 4.60	< 4.60

The next lines start with the values.

pIC50 [1]	pIC50 [2]	pIC50 [3]	SMILES
5.90	4.84	5.67	CCc1ccccc1NC(=O)CSC(=O)NNC(=O)[C@H](COCc1ccccc1)NC(=O)OC(C)(C)C [Compound No. 46]
4.81	< 4.60	5.35	CCc1ccccc1NC(=O)CSC(=O)NNC(=O)[C@@H](COCc1ccccc1)NC(=O)OC(C)(C)C [Compound No. 48]
6.43	5.03	6.02	CC(C)(C)OC(=O)N[C@@H](COCc1ccccc1)C(=O)NNC(=O)SCC(=O)N1CCc2ccccc2C1 [Compound No. 50]
6.29	< 4.60	6.19	CC(C)(C)OC(=O)N[C@@H](COCc1ccccc1)C(=O)NNC(=O)SCC(=O)NCCc1ccccc1 [Compound No. 51]
6.24	< 4.60	6.04	CC(C)(C)OC(=O)N[C@@H](COCc1ccccc1)C(=O)NNC(=O)SCC(=O)NCCc1ccc(Br)cc1 [Compound No. 52]
6.42	< 4.60	6.04	CC(C)(C)OC(=O)N[C@@H](COCc1ccccc1)C(=O)NNC(=O)SCC(=O)NCCc1c[nH]c2ccccc12 [Compound No. 53]
6.15	5.29	5.84	CC(C)(C)OC(=O)N[C@@H](COCc1ccccc1)C(=O)NNC(=O)SCC(=O)Nc1ccccc1[N+](=O)[O-] [Compound No. 55]
6.37	< 4.60	5.79	CCOC(=O)c1cccc(NC(=O)CSC(=O)NNC(=O)[C@H](COCc2ccccc2)NC(=O)OC(C)(C)C)c1 [Compound No. 56]
5.90	4.84	5.67	CCc1ccccc1NC(=O)CSC(=O)NNC(=O)[C@H](CCCCNC(=O)OCc1ccccc1)NC(=O)OC(C)(C)C [Compound No. 58]
